Several values for one entry are separate records, joined by “and”; a condition that tells them apart may be missing. Equal values may be shown once. Marks after values point to notes of the source that are not given here.
System: IL-1β mRNA
Assay: Semi-quantitative RT-PCR of IL-1β mRNA relative to β-actin in SLS-occluded skin (tape and biopsy)
Assay type: in vivo, human
From the text: Clinical protocols: The study protocols were reviewed and approved by an independent IRB (BioMed IRB, San Diego) and all subjects signed informed consent. […] The bandages were made using a clear, non-porous plastic hypoallergenic adhesive tape. […] The sites were scored by a trained technician using the scale provided below. […] Abbott Laboratories). […] An area of uninvolved skin was tape harvested and shave biopsied in an identical manner. […] The following grading scale was used: 0, no visible reaction; 1, slight, pink, patchy erythema; 2, mild confluent, pink erythema; 3, moderate erythema (definite redness) with edema; 4, strong erythema (very intense redness) with edema. […] Patches were removed, scored and tape stripped as above. In a third study, two individuals were tape stripped on uninvolved skin on the upper back at three adjacent sites as above. RNA harvested in these last two studies was used in the DNA microarray experiments described below. Isolation of RNA: […] Extraction was performed using the manufacturer's directions and included a Proteinase K digestion, sonication of tapes and “on-column” DNase I digestion. […] Extraction of biopsies was performed with the same kit according to the manufacturer's instructions. Quantitative RT-PCR: 10 μl of RNA was reverse transcribed (RT) into cDNA with the Sensiscript Reverse Transcriptase kit and random hexamers in a final volume of […] according to the manufacturer's directions. […] All RT-reactions were amplified using 2 replicates and were negative (data not shown). Amplification and detection of specific mRNA: Specific mRNAs were converted to cDNA as described above. […] Amplification and detection assays were performed using TaqMan Pre-Developed Assay Reagents (PDAR; […] GAPDH mRNA assays were done in singleplex format. Thermal cycling conditions were: prior to cycling, two minutes at 50° C., then ten minutes at 95° C.; then 40 cycles at 95° C. for 15 seconds and 60° C. for 60 seconds. […] Semi-quantitation of mRNA using the ΔΔCt method: In this Example the comparative or ΔΔCt method of calculating relative gene expression levels between two samples, was used. In the ΔΔCt method the levels of IL-1β, IL-8 and GAPDH mRNAs are assayed semi-quantitatively by normalization to β-actin mRNA to create a ratio of (mRNAx)/(β-actin) mRNA for each RNA sample. This ratio is then further normalized to a control sample (a process called “calibration”; (Applied Biosystems 2001)). When comparing the ratio of mRNAx to β-actin mRNA between two different samples, it is implicitly assumed that the level of β-actin mRNA to total RNA is constant between the two samples (i.e. it is an unchanging housekeeping gene). […] The Ct values are the experimentally determined number of PCR cycles required to achieve a threshold fluorescence (statistically significant increase in fluorescence over background) for mRNAx and β-actin mRNA (Gibson, Heid et al. 1996; Heid, Stevens et al. 1996). Calculation of fold-increase and data analysis: Key to the method used to measure mRNA is the fact that the quantity of specific mRNA directly correlates with the number of cycles needed to reach threshold fluorescence, thus the fewer the number of cycles (the lower the Ct), the more mRNA is initially present. As described above, experimental data is reported as the number of cycles (Ct) required to reach a threshold fluorescence. […] The significance of ΔCt values (Tables I and IV) was determined by applying a two-sided, paired t-test. […]

[1] = SLS-occluded skin vs uninvolved skin

CCCCCCCCCCCCOS(=O)(=O)[O-].[Na+] [SLS, sodium lauryl sulfate]
fold-change in IL-1β/β-actin mRNA ratio, Biopsy (SLS-occluded skin relative to uninvolved skin, biopsy samples, per subject, > = minimum estimate, sulfate): >15**^† fold and >3.3** fold and >8**^† fold and >34**^† fold and >11**^† fold and 56**^† fold and >53**^† fold and 2.2** fold and 1 fold and >28**^† fold | fold-change in IL-1β/β-actin mRNA ratio, Tape (SLS-occluded skin relative to uninvolved skin, tape samples, per subject, > = minimum estimate, sulfate): 18**^† fold and >0.44 fold and >8.1**^† fold and >1.9** fold and >5** fold and >1.4 fold and >7.3**^† fold | biopsy samples with significantly elevated IL-1β/β-actin mRNA ratio [1]: 9 of 10 | tape-harvested samples with significant increases in IL-1β/β-actin mRNA [1]: 5 of 10 | SLS-treated biopsy samples with significant increases in IL-1β/actin mRNA ratio calibrated to the water-treated site (of 10 biopsy samples): 7 samples
